Consider 1 compound from PMC7996900 (Microorganisms, 2021).

For this assay, the target named is SUMOHis6-GdpX6^GGDEF (GdpX6, PXO_02019) (Xanthomonas oryzae, UniProt A0A0K0GND9). Description: biochemical.
SUMOHis6-GdpX6^GGDEF (GdpX6, PXO_02019), sequence (A0A0K0GND9 318-494 limits assumed): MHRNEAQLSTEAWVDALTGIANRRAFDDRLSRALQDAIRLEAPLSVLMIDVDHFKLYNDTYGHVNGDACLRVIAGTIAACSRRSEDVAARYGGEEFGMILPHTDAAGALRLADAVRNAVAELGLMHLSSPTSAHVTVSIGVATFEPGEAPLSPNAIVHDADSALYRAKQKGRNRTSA

In turn, `Nc1nc2c(ncn2[C@@H]2O[C@@H]3CO[P@](=O)(O)O[C@H]4[C@@H](O)[C@H](n5cnc6c(=O)[nH]c(N)nc65)O[C@@H]4CO[P@](=O)(O)O[C@H]3[C@H]2O)c(=O)[nH]1` [c-di-GMP] gave a dissociation constant (Kd) of 9 ± 2.98 µM.

As a reminder, the Kd is a measure of binding affinity in units of concentration. High values mean a looser complex, low ones a tighter complex.
